How the values were obtained:
Human Cat-K = biological target: T1, Human Cat-K (Homo sapiens, UniProt P43235); assay: Enzymatic isoform-selectivity assay, Cat-K; type: biochemical
T1 sequence (P43235 115-329): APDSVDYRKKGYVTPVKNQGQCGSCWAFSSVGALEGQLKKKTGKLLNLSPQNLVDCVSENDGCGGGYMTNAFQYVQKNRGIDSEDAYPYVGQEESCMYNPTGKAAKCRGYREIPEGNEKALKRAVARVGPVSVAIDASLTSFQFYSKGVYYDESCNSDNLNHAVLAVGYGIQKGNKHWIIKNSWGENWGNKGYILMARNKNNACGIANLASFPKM
Method: (§1) RO5459072 was provided by F. Hoffmann-La Roche, Ltd., Basel, Switzerland. It is a competitive inhibitor of the active site of Cat-S and its nitrile function allows covalent reversible inhibition of Cat-S. The synthesis of RO5459072 has been described in WO 2010121918 and WO 2013068434. Recombinant cathepsins were produced in-house or were purchased from commercial vendors. Initial enzymatic assays to determine isoform-selectivity in vitro were performed as previously described, [23]. […] For this the Cat-S-dependent hydrolysis of the fluorogenic substrate Z-Phe-Arg-AMC (Sigma Aldrich) was followed at various inhibitor concentrations. The active fraction of Cat-S was detemined as 70% with a HPLC assay measuring modification of Cat-S with the covalent inhibitor LHVS. The buffer (100 mM potassium phosphate, 50 mM NaCl, 5 mM EDTA, 5 mM TCEP, pH 6) was thoroughly degassed prior to perfoming measurements to prevent oxidation of the catalytic cystein residue by dissolved oxygen. For the Ki-determination the substrate was employed at 10 µM = KM. All kinetic measurements were performad on a SFM-3000 stopped-flow instrument (Bio-Logic Science Instruments) and data were analyzed with GraphPad Prism v5.

Human Cat-S = Human Cat-S (Homo sapiens, UniProt P25774); assay: Tight-binding kinetic analysis, Z-Phe-Arg-AMC hydrolysis, Morrison equation; type: biochemical; settings: 10 µM Z-Phe-Arg-AMC (= KM), 10 nM Cat-S, pH 6
Method: as §1, with “The buffer (100 mM potassium phosphate, 50 mM NaCl, 5 mM EDTA, 5 mM TCEP, pH 6) was thoroughly degassed prior to perfoming measurements to prevent oxidation of the catalytic cystein residue by dissolved oxygen. For the Ki-determination the substrate was employed at 10 µM = KM.” left out, “v5. […]” for “v5.”
active Cat-S converged to [E]0 = 6.9 nM). […] (E) Pharmacodynamics of R05459072 was determined in C57Bl6 mice with increasing amounts of compound as single dose. […]
Supplementary figure 3. […] Plasma levels of IgG1 (A), IgG2a (B), and IgG2b (C) were determined by ELISA at different time points from the initiation (week 11) to the end of treatment (week 19). Data are expressed as means ± SEM (n=8 to 10 in […]

[1] = extensive screening studies in mice, rats, monkeys and humans preceding clinical trial NCT01701985; cited from earlier work

Chain of Human Cat-S (P25774 115-331): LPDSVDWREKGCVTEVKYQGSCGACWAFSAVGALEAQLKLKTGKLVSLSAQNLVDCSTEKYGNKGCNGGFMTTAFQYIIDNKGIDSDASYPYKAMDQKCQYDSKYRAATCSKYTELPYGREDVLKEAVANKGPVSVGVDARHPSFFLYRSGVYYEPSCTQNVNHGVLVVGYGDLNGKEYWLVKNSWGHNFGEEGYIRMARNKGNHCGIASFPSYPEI

With `Cn1cc(-c2ccc(S(=O)(=O)[C@@H]3C[C@@H](C(=O)NC4(C#N)CC4)N(C(=O)C4(C(F)(F)F)CC4)C3)c(C(F)(F)F)c2)cn1` [RO5459072] the IC50 (Human Cat-K) was > 1000 nM, the “IC50, Human Cat-K” value (Human Cat-K) was “No sub-micro molar inhibition” and the Ki (Human Cat-S) was 0.066 ± 0.025 nM. For the same compound, the drug safety signals [1] was “did not show any signals regarding drug safety”.

— PMC5459853, “Cathepsin S inhibition combines control of systemic and peripheral pathomechanisms of autoimmune tissue injury” (Scientific Reports, 2017)
